The results in this text go back to patent US12415810B2, “2'-isopropyl-spiro (3,3'-pyrrolidine oxindole) liver X receptor regulator, preparation method therefor, and use thereof” (SHENZHEN CELL INSPIRE PHARMACEUTICAL DEVELOPMENT CO., LTD., priority 2019, dated 2025).

One assay relates to liver X receptors. In words: Liver X receptor activity test, (subtype not named). The format is cell-based, human. To be noted: summary of Table 1. Here is the method:
(1) Cell culture: human embryonic kidney cells (HEK293T cells) were cultured in DMEM (high glucose) medium containing 10% fetal bovine serum and 1% penicillin-streptomycin under conditions of 37° C. and 5% CO2.
(2) Transfection: HEK293T cells were seeded in a 96-well plate with a cell density of 2×10^4 cells/well. After 24 hours, the cells were transfected according to instructions of Lipofectamine™ 3000 reagent. The specific steps of transfection were as follows: • (1) adding 15 μL of L3000 reagent to 500 μL of DMEM (high sugar) medium, and vortex oscillating for 2 seconds; • (2) mixing 6.5 μg of pGL3/(DR-4)-c-fos-FF-luc plasmid, 0.13 μg of pCMV/Renilla-luc plasmid, 1.3 μg of pSG5/hLXRα (or pSG5/hLXRβ plasmid), 1.3 μg of pSG5/hRXRα plasmid, and 19 μL of P3000 reagent in 500 μL of DMEM (high sugar) medium; • (3) adding the plasmid mixture to a liposome mixture and standing by at room temperature for 20 minutes; and • (4) adding 10 μL of liposome-DNA solution to each well of the 96-well plate, and gently shaking the 96-well plate to mix well.
(3) Drug intervention: after 5 hours of transfection, the compounds to be tested were added, and the plate was placed in an incubator to continue culturing for 20 hours.
(4) Detection: dual-luciferase reporter gene system was used for detection. The specific steps of detection were as follows: • (1) aspirating the original medium in the 96-well plate, adding cell lysate to the 96-well plate at 20 μL/well, and quickly shaking the plate at room temperature for 20 minutes; • (2) adding samples to a 384-well plate at 20 μL/well; • (3) adding firefly luciferase substrate to each well at 10 μL/well, and measuring chemiluminescence after 7 seconds; and • (4) adding Renilla luciferase substrate to the same sample well at 100 μL/well, and measuring chemiluminescence after 7 seconds.
Result processing: the results were analyzed using Renilla luciferase activity to correct the firefly luciferase activity.

The next assay relates to HepG2 cells. In words: Triglyceride test in HepG2 cells induced by high glucose. It is filed as cell-based, human. The following applies: concentration of 10 μM, 24 hours. The protocol:
(2) HepG2 cells were seeded in a 12-well plate, cultured with DMEM (low sugar) medium and starved for 12 hours. When the cells grow to a density of 70%, the medium was changed to DMEM (high sugar) medium and the compound was added to act for 24 hours.

Assay [1] concerns SREBP-1c, ACC, FAS and SCD-1. Kind of assay: mRNA content of LXR downstream genes by qPCR in 3T3-L1 cells. It is filed as cell-based, mouse. To be noted: day 6 of differentiation. Here is the method:
(§1) HepG2 cells were seeded in a 6-well plate with a cell density of 8×10^5 cells/well and incubated for 24 hours. The compounds to be tested were added and acted for 24 hours, and then the cells were harvested. The 3T3-L1 cells were harvested on day 6 of differentiation. The cells were washed twice with PBS, total RNA was extracted with RNAiso plus reagent, 1 μg of total RNA was reverse transcribed into cDNA using ReverTra Ace qPCR RT Master Mix, and PCR amplification was performed using SYBR Green Realtime PCR Master Mix.
(In general: In qPCR the cycle at which signal appears reflects the starting amount.)

Assay [2] deals with SREBP-1c, ACC, FAS and SCD-1. In words: mRNA content of LXR downstream genes by qPCR in HepG2 cells. The format is cell-based, human. The following applies: 24 hours. The protocol:
as §1

Assay [3] has as its system Triton WR-1339-induced hyperlipidemia mice. Kind of assay: Lipid-lowering activity in Triton WR-1339-induced hyperlipidemia mice. To be noted: 100 mg/kg intragastric for 8 days. It is filed as in vivo, C57BL/6J mice. Here is the method:
6-week-old SPF female C57BL/6J mice were purchased from the Experimental Animal Center of Sun Yat-sen University. The mice were randomly divided into 4 groups each including 6 mice, i.e., a normal control group, model a group, a fenofibrate group (100 mg/kg), and a B1 group (100 mg/kg), and intragastric administration was performed for 8 days. 24 hours before the last administration, the normal control group was intramuscularly injected with saline, and the remaining groups were injected with Triton WR-1339 (1500 mg/kg). One hour after the last administration, the eyeballs were removed to collect blood, the mice were executed by cervical dislocation, and the livers were collected. The plasma was allowed to stand for 1 hour, and the supernatant was collected by centrifugation at 4° C. and 3000 rpm. 100 mg of liver was weighed, added with methanol in 3 times the volume of the weighed liver, and homogenized thoroughly. Chloroform was then added in 6 times the volume and vortex oscillated. After centrifuging at 3000 rpm for 10 minutes, the lower chloroform layer was collected, and evaporated naturally overnight in a fume hood. 150 μL of 1% Triton ethanol was added and heated at 65° C. to be fully dissolved. Finally, triglycerides (TG), total cholesterol (TC), low-density lipoprotein cholesterol (LDL-C), and high-density lipoprotein cholesterol (HDL-C) in serum and liver samples were detected.

The test system of a further assay is 3T3-L1 cells. Kind of assay: cells. To be noted: Mus musculus, 3T3-L1, 144 h, read-out: IC50 for lowering the triglyceride level in 3T3-L1 cells.

What is called IC50 is the concentration needed to halve the response being measured. Consider `CC(C)[C@H]1N(C(=O)OC(C)(C)C)CC[C@]12C(=O)N(c1cccc(-c3ccc(CO)c(S(C)(=O)=O)c3)c1)c1ccccc12` [Compound 2a-1], for which the “inverse activation of liver X receptors (in words)” value with liver X receptors is “can inversely activate liver X receptors”. The “triglyceride accumulation in HepG2 cells induced by high glucose” value in the assay on HepG2 cells is “significantly reduce”. Further, in assay [1], the “mRNA content of ACC” value is “reduced the mRNA content of SREBP-1c, ACC, FAS and SCD-1 in a concentration-dependent manner”; the “mRNA content of FAS” value is “reduced the mRNA content of SREBP-1c, ACC, FAS and SCD-1 in a concentration-dependent manner”; the “mRNA content of SCD-1” value was “reduced the mRNA content of SREBP-1c, ACC, FAS and SCD-1 in a concentration-dependent manner”; the “mRNA content of SREBP-1c” value is “reduced the mRNA content of SREBP-1c, ACC, FAS and SCD-1 in a concentration-dependent manner”. For the same compound, in assay [2], the “mRNA content of ACC” value was “significantly reduced”, the “mRNA content of FAS” value is “significantly reduced”, the “mRNA content of SCD-1” value is on record as “significantly reduced” and the “mRNA content of SREBP-1c” value is listed as “significantly reduced”. Further, the “triglyceride content in the livers of mice” value in assay [3] (liver) is “can reduce the triglyceride content”. Further, in assay [3] (serum), the HDL-C/LDL-C level result is given as “slightly increased”, the HDL-C/TC result is reported as “Neither fenofibrate nor compound 2a-1 had a significant effect”, the “increase in HDL-C level induced by Triton WR-1339” value is listed as “significantly inhibit” and the “increase in LDL-C level induced by Triton WR-1339” value was “significantly inhibit”. In assay [3] (serum), the “increase in TC level induced by Triton WR-1339” value is “significantly inhibit” and the “increase in TG level induced by Triton WR-1339” value is on record as “significantly inhibit”. Besides, the IC50 in the assay on 3T3-L1 cells was 270 ± 30 nM.
